Results as given in ChEMBL document CHEMBL1137272, “Discovery and synthesis of tetrahydroindolone derived semicarbazones as selective Kv1.5 blockers” (Bioorg Med Chem Lett, 2006).
The source made the active and inactive calls. No cut-off for these calls is given here.

Assays:
[1] = target: T1, Potassium voltage-gated channel subfamily A member 5 (Homo sapiens, UniProt P22460); assay: Inhibition of Kv1.5 expressed in LTK- cells by whole cell patch clamp assay at 1uM; type: functional, cell-based
T1 sequence (P22460 whole entry): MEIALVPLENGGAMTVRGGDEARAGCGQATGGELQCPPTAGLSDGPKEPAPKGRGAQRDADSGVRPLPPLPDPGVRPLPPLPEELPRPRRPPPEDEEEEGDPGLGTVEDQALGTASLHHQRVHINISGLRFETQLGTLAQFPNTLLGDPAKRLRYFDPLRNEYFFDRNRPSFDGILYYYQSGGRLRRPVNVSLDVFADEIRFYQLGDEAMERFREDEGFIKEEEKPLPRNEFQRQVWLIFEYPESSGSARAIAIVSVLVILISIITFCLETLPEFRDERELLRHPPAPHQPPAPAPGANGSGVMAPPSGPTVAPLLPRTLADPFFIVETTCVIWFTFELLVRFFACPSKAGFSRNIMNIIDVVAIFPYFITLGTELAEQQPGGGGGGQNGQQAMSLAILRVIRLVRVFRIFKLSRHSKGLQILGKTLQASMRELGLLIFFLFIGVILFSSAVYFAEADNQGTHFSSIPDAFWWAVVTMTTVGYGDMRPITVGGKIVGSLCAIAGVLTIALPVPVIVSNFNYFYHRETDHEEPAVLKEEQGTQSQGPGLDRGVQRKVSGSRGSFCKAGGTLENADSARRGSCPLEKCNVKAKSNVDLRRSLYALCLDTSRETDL

[2] = target: T1, Potassium voltage-gated channel subfamily A member 5; assay: Inhibition of Kv1.5 expressed in LTK- cells by whole cell patch clamp assay; type: functional, cell-based
Sus scrofa [3] = assay: Prolonged right atrial refractory period in pigs after 15 minute iv infusion at 30mg/kg; type: functional, Cardiac atrium
Sus scrofa [4] = assay: Prolonged ventricular refractory period in pigs after 15 minute iv infusion at 30mg/kg; type: functional, organism-based; conditions: Cardiac ventricle
Sus scrofa [5] = assay: Prolonged right atrial refractory period in pigs after 15 minute iv infusion at 10mg/kg; type: functional, Cardiac atrium
Sus scrofa [6] = assay: Prolonged ventricular refractory period in pigs after 15 minute iv infusion at 10mg/kg; type: functional, organism-based; conditions: Cardiac ventricle
[7] = target: Voltage-gated L-type calcium channel (Homo sapiens, UniProt Q13936+Q13698+Q01668+O60840); assay: Inhibition of L-type calcium channel by FLIPR assay; type: functional

inhibition [1]	Compound	further results
inactive	Cc1[nH]c2c(c1C(C)C)/C(=N/NC(=O)Nc1ccc(Cl)cc1)CCC2	–
52%	CCc1c(C)[nH]c2c1/C(=N/NC(=S)Nc1ccc(C(F)(F)F)cc1)CCC2	–
64%	CCc1c(C)[nH]c2c1/C(=N/NC(=S)Nc1cccc(C)c1)CCC2	–
60%	CCc1[nH]c2c(c1CC)/C(=N/NC(=O)Nc1ccc(Cl)cc1)CCC2	–
71%	CCc1c(C)[nH]c2c1/C(=N/NC(=S)Nc1ccc(Cl)cc1)CCC2	–
80%	CCc1c(C)[nH]c2c1/C(=N/NC(=O)Nc1ccc(SC)cc1)CCC2	IC50 [2]: 0.28 µM
67%	Cc1[nH]c2c(c1C)/C(=N/NC(=O)Nc1ccc(Cl)cc1)CCC2	IC50 [2]: 0.37 µM
93%	CCc1c(C)[nH]c2c1/C(=N/N(C)C(=O)Nc1ccc(Cl)cc1)CCC2	IC50 [2]: 0.13 µM; Prolonged ARP (Sus scrofa [3]): 18%; Prolonged VRP (Sus scrofa [4]): inactive
85%	CCc1[nH]c2c(c1CC)/C(=N/NC(=O)Nc1ccc(OC)cc1)CCC2	–
56%	CCc1[nH]c2c(c1CC)/C(=N/NC(=O)Nc1ccc(SC)cc1)CCC2	–
78%	CCc1c(C)[nH]c2c1/C(=N/N(C)C(=O)Nc1ccc(SC)cc1)CCC2	–
60%	CCc1c(C)[nH]c2c1/C(=N/NC(=O)Nc1cccc(C3CCCN3)c1)CCC2 (stereo not given)	IC50 [2]: 0.75 µM
50%	CCc1c(C)[nH]c2c1/C(=N/NC(=O)Nc1ccc(C)cc1)CCC2	–
85%	CCc1c(C)[nH]c2c1/C(=N/NC(=O)Nc1ccccc1)CCC2	IC50 [2]: 0.13 µM; Prolonged ARP (Sus scrofa [5]): 28%; Prolonged VRP (Sus scrofa [6]): inactive; IC50 [7]: > 30 µM
56%	CCc1[nH]c2c(c1CC)/C(=N/NC(=O)Nc1ccccc1)CCC2	–
67%	CCc1[nH]c2c(c1CC)/C(=N/NC(=O)Nc1cccc(SC)c1)CCC2	–
63%	Cc1[nH]c2c(c1C)/C(=N/NC(=O)Nc1ccc(C(F)(F)F)cc1)CCC2	–
65%	CCc1c(C)[nH]c2c1/C(=N/NC(=O)Nc1ccc(Cl)cc1)CCC2	IC50 [2]: 0.44 µM

Further lines, the molecule ahead of its results:

Compound	inhibition [1]	further results
Cc1[nH]c2c(c1C)/C(=N/NC(=O)Nc1ccccc1)CCC2	37%	–
CCc1c(C)[nH]c2c1/C(=N/N(C)C(=O)Nc1ccccc1)CCC2	65%	–
CCc1c(C)[nH]c2c1/C(=N/NC(=S)Nc1cccc(C(F)(F)F)c1)CCC2	91%	IC50 [2]: 0.2 µM
O=C(N/N=C1\CCCC2=C1C1CCCCC1N2)Nc1ccccc1 (stereo not given)	20%	–
CCc1c2c(n(C)c1CC)CCC/C2=N\N(C)C(=O)Nc1ccc(C(C)=O)cc1	90%	IC50 [2]: 0.37 µM
CCc1c2c(n(C)c1CC)CCC/C2=N\N(C)C(=O)Nc1ccc(Cl)cc1	90%	–
Cc1[nH]c2c(c1C(C)C)/C(=N/NC(=O)Nc1ccccc1)CCC2	inactive	–
CCc1c(C)[nH]c2c1/C(=N/NC(=S)Nc1cccc(Cl)c1)CCC2	78%	–
CCc1c(C)[nH]c2c1/C(=N/N(C)C(=O)Nc1ccc(C(C)=O)cc1)CCC2	86%	–
O=C(N/N=C1\CCCc2[nH]ccc21)Nc1ccccc1	inactive	–
CCc1c2c(n(C)c1CC)CCC/C2=N\N(C)C(=O)Nc1ccccc1	84%	–
O=C(N/N=C1\CCCc2[nH]ccc21)Nc1ccc(Cl)cc1	28%	IC50 [2]: 5.6 µM
CCc1c(C)[nH]c2c1/C(=N/N(C)C(=O)Nc1cccc(Cl)c1)CCC2	89%	–
